For experiment [1], the target named is Ac-Arg-His-Lys-Lys^Ac-NH2. Kind of experiment: ITC binding of STACs to Ac-Arg-His-Lys-Lys^Ac-X, X=NH2. The settings on record: 10% DMSO for SRT1720, SRT2183 and 10, no cosolvent for SRT1460. The procedure:
ITC experiments were performed using either a VP-ITC system or iTC200 system (MicroCal) at 26° C. in a buffer composed of 137 mM NaCl, 2.7 mM KCl, 1 mM MgCl2, 2 mM TCEP, 5% (v/v) glycerol and 50 mM HEPES-NaOH, pH 7.3. SIRT1(183-664) was purified and dialyzed against the buffer, centrifuged, and degassed before the experiment. The peptide and compounds were dissolved in the final dialysis buffer and their pH values were adjusted to match that of the protein solution. […] To characterize this interaction using the iTC200 system, 1 mM TAMRA-peptide was injected in 20 aliquots of 2 μL, (except the first injection, which was 0.5 μL) into a 0.202 mL sample cell containing 100 μM STAC. For STACs with poor solubility, the concentrations were adjusted accordingly. […] In all cases, data was corrected for the heat of dilution and fitted using a nonlinear least-squares routine using a single-site binding model with Origin for ITC v7.0383 (Microcal) with the stoichiometry (n), the enthalpy of the reaction (ΔH) and the association constant (Ka) calculated. Table 2 summarizes Kd values for the binding of STACs to […]. Note that except for SRT1460, the solubility of the compounds required that these ITC experiments be done in solutions containing 10% DMSO.

A further experiment concerns the target T1, SIRT1 (Homo sapiens, UniProt Q96EB6).
T1 sequence (Q96EB6 1-747): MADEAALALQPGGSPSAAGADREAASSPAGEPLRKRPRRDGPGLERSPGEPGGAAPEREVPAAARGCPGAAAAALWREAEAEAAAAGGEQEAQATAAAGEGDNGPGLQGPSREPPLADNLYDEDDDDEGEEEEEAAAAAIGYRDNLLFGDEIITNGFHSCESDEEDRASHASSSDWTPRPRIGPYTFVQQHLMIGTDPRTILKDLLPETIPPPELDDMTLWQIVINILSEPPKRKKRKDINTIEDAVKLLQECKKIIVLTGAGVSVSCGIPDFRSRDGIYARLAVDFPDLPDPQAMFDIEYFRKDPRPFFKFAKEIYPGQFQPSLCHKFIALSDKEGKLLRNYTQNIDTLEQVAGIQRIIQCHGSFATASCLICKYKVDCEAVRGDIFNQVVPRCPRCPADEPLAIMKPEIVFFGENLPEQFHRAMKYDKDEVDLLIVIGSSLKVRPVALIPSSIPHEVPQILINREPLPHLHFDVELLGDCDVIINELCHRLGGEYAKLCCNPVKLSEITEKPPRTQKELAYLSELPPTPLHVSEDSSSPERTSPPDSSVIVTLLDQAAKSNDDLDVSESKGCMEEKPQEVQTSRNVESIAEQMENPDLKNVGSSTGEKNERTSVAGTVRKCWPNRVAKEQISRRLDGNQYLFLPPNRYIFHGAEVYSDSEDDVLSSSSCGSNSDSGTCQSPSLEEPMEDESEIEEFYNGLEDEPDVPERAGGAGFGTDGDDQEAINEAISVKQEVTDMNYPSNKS
The experiment in a line: Fits of SIRT1 activation data (TAMRA-peptide) to kinetic models: Michaelis-Menten, eq (5), eq (9). Format: biochemical. As to conditions: for Vmax,app: data of Milne et al. fit to Michaelis-Menten equation. An excerpt:
The rate law for the mechanism of FIG. 2A can be derived starting with the expression of eq (4), which was derived using the rapid equilibrium assumption. To express the rate law in terms of total and free substrate, eq (4) can be […] show in eq (5). This derivation will be complete if we can express [S] in terms of [S]o, [X]o, and Kd. This starts with the definition of Kd, given in eq (6): The rate law for the mechanism of FIG. 2B can be derived using the rapid equilibrium assumption and is given in eq (9). […] To determine if the mechanism of FIG. 2A could accommodate such an activator, we fit the activation titration curve reported in Milne et al. ((2007) Nature 450, 712-716) to the expression of eq (5). This curve is reproduced in FIG. 7A. […] In this fitting, the following constraints were used: […] If the mechanism of FIG. 2A obtains for SRT1460, parameter estimates from the two types of experiment must be the same. […] Enzyme allostery can account for the activation of the SIRT1-Catalyzed deacetylation of TAMRA-Peptide by SRT1460 When the rate law for the allosteric mechanism of activation, is used to fit the data of FIG. 7B the following best-fit parameters are obtained: Kx=8.7±0.8 μM, β=0.26±0.02, and γ=1.48±0.04. The lines drawn using eq (9) and these parameters show an excellent fit to the data. These lines superimpose on those drawn from the individual fits and the parameter estimates of Table 5.

“And” between values parts separate entries of the source, which are not always exact repeats. Identical values can stand only once. Like-named read-outs stand apart in the source and are kept apart here.

`CCCCc1nc(NC2CCNCC2)cc(C(=O)Nc2ccccc2-c2nc3cc(COC4CCNCC4)cnc3s2)n1` [Compound 10, 2-butyl-6-(piperidin-4-ylamino)-N-(2-(6-((piperidin-4-yloxy)methyl)thiazolo[5,4-b]pyridin-2-yl)phenyl)pyrimidine-4-carboxamide] registered a Kd in experiment [1] of more than 500 µM. The “γ, best fit of activator titration curve to eq (5) (indirect mechanism of FIG. 2A)” value at SIRT1 ([S]o and Km constrained) is given as 0.69±0.08.

`COc1cc(C(=O)Nc2ccccc2-c2cn3c(CN4CCNCC4)csc3n2)cc(OC)c1OC` [SRT1460]: the Kd in experiment [1] was more than 500 µM. For the same molecule, the “γ, global fit of velocity vs substrate data at fixed activator concentrations (FIG. 7B) to eq (5)” value at SIRT1 (Kd assigned 140 μM, data of Milne et al.) is 1.53±0.07 and 1.53. Besides, the Km worked out at 1 ± 0.1 µM at SIRT1 (Kd assigned 140 μM, data of Milne et al., read-out: Km,x, global fit of velocity vs substrate data at fixed activator concentrations (FIG. 7B) to eq (5)); 0.09 µM on SIRT1 (Kd, [S]o and Km constrained, read-out: Km,x, best fit of activator titration curve to eq (5) (indirect mechanism of FIG. 2A)); 0.09 µM at SIRT1 ([S]o and Km constrained, read-out: Km,x, best fit of activator titration curve to eq (5) (indirect mechanism of FIG. 2A)). Also, the “Vmax,app” value at SIRT1 ([SRT1460] 3 μM) was 11 units; at SIRT1 ([SRT1460] 11 μM) it was 12 units; on SIRT1 ([SRT1460] 37 μM), 14 units. Besides, at SIRT1 ([S]o and Km constrained), the “γ, best fit of activator titration curve to eq (5) (indirect mechanism of FIG. 2A)” value was 0.20 and 0.20 ± 0.01. In addition, the “Kx, best fit of FIG. 7B data to allosteric rate law eq (9)” value at SIRT1 (data of Milne et al.) is 8.7 ± 0.8 µM. Besides, the “β, best fit of FIG. 7B data to allosteric rate law eq (9)” value on SIRT1 (data of Milne et al.) worked out at 0.26±0.02. The “γ, best fit of FIG. 7B data to allosteric rate law eq (9)” value at SIRT1 (data of Milne et al.) is recorded as 1.48±0.04.

Source of the values: patent publication US20130102009A1, “SIRTUIN ACTIVATORS AND ACTIVATION ASSAYS” (priority 2010, published 2013).
